# Experimental data reported in publication PMC4502414, “Transforming berberine into its intestine-absorbable form by the gut microbiota” (Scientific Reports, 2015).
# Like-named read-outs stand apart in the source and are kept apart here.
# What was measured:
# [1] = tested on: mixture of rat gut bacteria; assay: BBR-to-dhBBR conversion in rat gut bacteria mixture with nitroreductase inhibitor; assay type: cell-based; conditions: 2-IBA in BBR incubation with mixture of rat gut bacteria, 12 h
# Description: (§1) BBR was incubated with nitroreductase in intestinal bacteria cultures. The reaction mixture consisted of BBR (50 μg/ml), an NADPH-regenerating system and nitroreductase (5 μg/ml) in a final volume of 1 ml under the protection of N2. After incubation for 0, 2, 4, 6 and 12 h at 37 °C, the reaction was terminated by the addition of 1 ml of ice-cold acetonitrile. The samples were then extracted with 1 ml of ethyl acetate after adding 1 ml of 0.5 M sodium hydroxide solution. The organic phase was evaporated to dryness under a nitrogen flow in a water bath at 40 °C. The residue was dissolved with 200 μl of the mobile phase for further analysis. 2-Iodosobenzoic acid (2-IBA), a specific inhibitor of nitroreductase, was used to verify the role of bacterial nitroreductase.
# nitroreductase = target: T1, nitroreductase (Escherichia coli, UniProt P38489); assay: Nitroreductase-mediated BBR reduction, cell-free incubation; assay type: biochemical; conditions: 2-IBA 100 μM, nitroreductase-containing cell-free incubation; read-out: inhibition rate of BBR-to-dhBBR conversion
# T1 construct: purchased Sigma-Aldrich Co. (Shanghai, China); host or cells: Escherichia coli
# T1 sequence (P38489 whole entry): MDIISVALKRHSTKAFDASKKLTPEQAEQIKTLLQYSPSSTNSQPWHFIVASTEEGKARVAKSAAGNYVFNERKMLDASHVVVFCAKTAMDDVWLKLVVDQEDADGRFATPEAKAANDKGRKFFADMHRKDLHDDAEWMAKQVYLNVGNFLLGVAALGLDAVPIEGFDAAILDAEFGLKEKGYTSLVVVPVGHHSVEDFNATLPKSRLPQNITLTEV
# Description: as §1
# [2] = Effect of ions on the dhBBR-to-BBR transformation; conditions: EDTA-2Na 10 mM
# Description: dhBBR was added into the reaction solution containing FeCl3, CuCl2, ZnCl2, and NaCl (at concentrations of 0.033, 0.333 and 3.33 mM, respectively). Ethylenediaminetetraacetic acid disodium salt (EDTA-2Na, 10 mM), a chelating agent for metal ions, was used in the test.
# [3] = design: method as in PMID 18285556; conditions: cited from earlier work
# [4] = 72-h cumulative fecal excretion of BBR and dhBBR in pseudo germ-free (PGF) and conventional rats; assay type: in vivo, SD rats; conditions: oral BBR 200 mg/kg
# Description: Male SD rats (180–200 g) were orally treated with cefadroxil (100 mg/kg), terramycin (300 mg/kg) and erythromycin (300 mg/kg) twice a day for 3 days, and pharmacokinetic examination was performed 2 days after final administration. The colon contents of the rats were collected on the first and third days after the final treatment with antibiotics, and the germ-free status was confirmed by culturing fecal samples aerobically on a nutrient agar culture medium. Fecal samples from non-antibiotic-exposed rats served as control samples. Before oral administration of a single dose of BBR (200 mg/kg), the PGF rats were fasted overnight with free access to water. […] The samples were stored at −20 °C for further analysis.
# [5] = Plasma concentration of BBR in KK-Ay mice treated or untreated with antibiotics; assay type: in vivo; conditions: for Cmax at 14 day: KK-Ay, mouse, plasma, oral, 200 mg/kg, BBR 200 mg/kg qd
# Description: Blood samples of the mice in Groups 1 and 2 were collected into a heparinized tube 30 min after the oral administration of BBR. The samples were taken at days 1, 3, 6, 10 and 14 of the BBR treatment course. The samples were centrifuged at 10,000 g for 5 min, and the plasma was collected and stored at −80 °C before analysis.
# [6] = Plasma BBR in pseudo germ-free versus conventional rats after oral BBR; assay type: in vivo; conditions: male, SD, rat, 200 mg/kg, oral BBR 200 mg/kg
# Description: Male SD rats (180–200 g) were orally treated with cefadroxil (100 mg/kg), terramycin (300 mg/kg) and erythromycin (300 mg/kg) twice a day for 3 days, and pharmacokinetic examination was performed 2 days after final administration. The colon contents of the rats were collected on the first and third days after the final treatment with antibiotics, and the germ-free status was confirmed by culturing fecal samples aerobically on a nutrient agar culture medium. Fecal samples from non-antibiotic-exposed rats served as control samples.
# Before oral administration of a single dose of BBR (200 mg/kg), the PGF rats were fasted overnight with free access to water. Blood samples were collected from the posterior orbital venous plexus into a heparinized tube at 0, 0.25, 0.5, 1, 1.5, 2, 3, 4, 6, 8, and 12 h post-BBR treatment and then subjected to the procedure described above. Fecal samples were also collected at 0, 6, 12, 24, 36 and 48 h post-BBR treatment. The samples were stored at −20 °C for further analysis.
# 17 intestinal bacteria = assay: Anti-bacterial test (MIC, broth microdilution); assay type: cell-based; conditions: 24 h
# Description: Seventeen bacterial strains (see above) were used in the susceptibility test for BBR and dhBBR. The bacterial strains, which belong to different species of bacteria, were collected and identified as described above. The minimum inhibitory concentrations (MICs) of BBR and dhBBR after 24 h were determined through the broth microdilution method according to the CLSI guidelines. BBR and dhBBR were tested at a concentration range of 8 to 512 μg/ml. The MIC was defined as the lowest concentration of an agent that prevents turbidity. The experiment was repeated three times. All of the bacterial strains tested in this study (S. aureus ATCC 29213, E. faecalis ATCC 29212, E. coli ATCC 25922, S. aureus 08-43, S. epidermidis 12-12, E. faecium 13-01, E. faecalis 13-01, E. coli 06-05, K. pneumoniae 13-14, Ps. aeruginosa 13-10, A. baumannii 13-02, E. cloacae 13-12, and P. mirabilis 13-01) were facultative anaerobes, of which S. aureus ATCC 29213, E. faecalis ATCC 29212 and E. coli ATCC 25922 were standard strains from ATCC (USA) and served as quality controls. L. casei ATCC 334, L. acidophilus ATCC 4356, B. longum ATCC 15707, and B. breve ATCC 15700 were also tested in this anti-bacterial experiment. Ampicillin was used as the positive control.
# [7] = Plasma pharmacokinetics after oral dhBBR or BBR in rats; assay type: in vivo, SD rats; conditions: SD, rat, plasma, po, 200 mg/kg
# Description: The plasma (100 μl) was precipitated with 100 μl of acetonitrile after addition of 10 μl of the internal standard. BBR served as a control in the study. The plasma concentrations of BBR and dhBBR were determined using LC-MS/MS 8040 and LC-MS/MS 8050.
# [8] = design: method as in PMID 21637946, PMID 12530470; conditions: cited from earlier work
# [9] = Absorption of BBR and dhBBR in Caco-2 cells; assay type: in vitro ADME; conditions: human
# Description: A Caco-2 cell assay was conducted using a method reported previously. […] To determine the rate of drug transport in the apical-to-basolateral direction, 200 μl of the compound working solution was added to the filter well (apical compartment), and 800 μl of HBSS was added to the receiver plate (basolateral compartment). Accordingly, to determine the rate of drug transport in the basolateral-to-apical direction, 800 μl of the compound working solution was added to each well of the receiver plate and 200 μl of HBSS was added to the filter well. The plates were incubated for 30 min at 37 °C with shaking at 150 rpm on a rotary shaker. At the end of the transport period, aliquots of 50 μl were removed directly from the apical and basolateral wells and transferred to wells of new plates. Four volumes of cold methanol containing internal standards were added into each well. The samples were centrifuged at 16,000 g for 15 min. Aliquots of 200 μl of the supernatant were used for the LC-MS/MS analysis.
# [10] = Therapeutic effect of BBR on hyperglycemia and hyperlipidemia in KK-Ay mice with or without antibiotics; assay type: in vivo
# Excerpt: KK-Ay mice with type 2 diabetes (female, 12 ± 1 weeks of age) were purchased from the Institute of Laboratory Animal Sciences, Chinese Academy of Medical Sciences (Beijing, China). […] Antibiotics at the doses described above were orally administered to KK-Ay mice for 3 days before the BBR treatment course, and the pseudo germ-free (PGF) state of the experimental mice was confirmed (see above). Four groups (n = 6 for each group) were used in the experiment: Group1, PGF KK-Ay mice orally treated with antibiotics (qd, at the dosage described above) plus BBR (200 mg/kg, qd) for 2 weeks; Group 2, untreated KK-Ay mice orally treated with BBR (200 mg/kg, qd) for 2 weeks; Group 3, PGF KK-Ay mice orally treated with antibiotics (qd, at a dosage identical to that for Group 1) for 2 weeks; Group 4, untreated KK-Ay mice. The antibiotics were administered in the morning and BBR was administered in the afternoon. All the animals were fed a high-fat diet. […] All of the mice were euthanized on day 14, and blood samples were taken to measure the fasting serum glucose (Glu), triglyceride (TG) and cholesterol (CHO) using Glu, TG and CHO reagent kits (Biosino Bio-Technology and Science INC, Beijing China), respectively. C57BL/6J mice were used as a wild-type reference. The body weights of the mice before, during and after treatments were recorded for 14 days.
# [11] = design: method as in PMID 24174332; conditions: patients; cited from earlier work
# [12] = Effect of heat inactivation and vitamin C on dhBBR-to-BBR transformation in rat small intestine homogenate; assay type: in vitro ADME; conditions: added to the reaction solution
# Description: The rats (n = 3) were sacrificed to obtain fresh small intestine homogenate. The homogenate was then boiled for 2 min to inactivate all of the enzymes. After pre-incubation at 37 °C for 2 min, 5 μl of dhBBR (10 mM, dissolved in DMSO) was added into the inactivated homogenate, and fresh homogenate (active one) was used as a reference. The sample was mixed thoroughly and centrifuged at 16,000 g for 5 min. The supernatant was transferred into new tubes, treated with 500 μl of acetonitrile, and then centrifuged. Twenty-microliter aliquots were used for the HPLC analysis.
# To examine the oxidative reaction, 100 μl of vitamin C was pre-incubated with the inactivated homogenate; the final concentrations of vitamin C were 95, 9.5 and 0.95 mM. The superoxide anion in the sample was detected with an O2^− ELISA kit (Beijing Biolab Co., Ltd., Beijing, China; lot: 201404) following the manufacturer’s instructions.
compound,measurement,setting,value
"O=Ic1ccccc1C(=O)O [2-IBA, 2-iodosobenzoic acid]",inhibition of dhBBR production,[1],78.7%
same,inhibition at 100 µM,nitroreductase,88.3%
"O=C([O-])CN(CCN(CC(=O)O)CC(=O)O)CC(=O)[O-].[Na+].[Na+] [EDTA-2Na, Ethylenediaminetetraacetic acid disodium salt]",reduction of dhBBR-to-BBR oxidization,[2],5%
dihydroberberine sulfate,absorption in the intestine compared with BBR,[3],better absorption
"COc1ccc2cc3[n+](cc2c1OC)CCc1cc2c(cc1-3)OCO2 [BBR, berberine]","total BBR in feces over 72 h, % of the administered amount",[4]; PGF rats,27.81%
same,"total BBR in feces over 72 h, % of the administered amount",[4]; untreated (conventional) rats,18.67%
same,Cmax at 14 day,"[5]; day 14, mice treated with antibiotics (Group 1)",28.3 ± 3.41 ng/mL
same,Cmax at 14 day,"[5]; day 14, mice without antibiotics (Group 2)",178 ± 57.6 ng/mL
same,Folds of Cmax [BBR / (BBR+Antibiotics)],[5]; day 14,6.4 fold
same,"Folds of Cmax, Group 2 over Group 1","[5]; throughout days 1, 3, 6, 10 and 14",3.5-6.5 fold
same,AUC(0-t),[6]; conventional SD rat,70.9 ng·h/mL
same,Cmax,[6]; conventional SD rat,26 ng/mL
same,AUC(0-t),[6]; pseudo germ-free rat,11.9 ng·h/mL
same,Cmax,[6]; pseudo germ-free rat,6.92 ng/mL
same,MIC,"17 intestinal bacteria; span over 17 strains, read-out: minimal inhibitory concentration (MIC) on the 17 bacteria",> 128 µg/mL
same,MIC,"17 intestinal bacteria; read-out: MIC, most of the 17 tested strains",≥ 512 µg/mL
same,AUC(0-t),"[7]; oral BBR 200 mg/kg, Fig. 3c curve 2, read-out: AUC(0-t) of BBR in plasma",54.6 ng·h/mL
same,Cmax,"[7]; oral BBR 200 mg/kg, Fig. 3c curve 2, read-out: Cmax of BBR in plasma",16.1 ng/mL
same,AUC(0-t),"[7]; oral dhBBR 200 mg/kg, read-out: AUC(0-t) of BBR in blood",262 ng·h/mL
same,Cmax,"[7]; oral dhBBR 200 mg/kg, read-out: Cmax of BBR in blood",52.5 ng/mL
same,water solubility,[8],poor water solubility
same,"efflux ratio at 30 min, 5 μM","[9]; Caco-2, pH 7.4, read-out: efflux ratio (ER)",32.4
same,"Papp A→B at 30 min, 5 μM","[9]; pH 7.4, Caco-2, 5 μM, 30 min",0.38 ×10⁻⁶ cm/s
same,reduction of therapeutic efficacy of BBR on cholesterol by antibiotics,"[10]; Group 1 vs Group 2, day 14",44%
same,reduction of therapeutic efficacy of BBR on triglyceride by antibiotics,"[10]; Group 1 vs Group 2, day 14",53%
same,reduction of therapeutic efficacy of BBR on fasting blood glucose by antibiotics,"[10]; antibiotics before and during BBR (Group 1) vs BBR only (Group 2), day 14",42%
same,reduction of LDL-c level,[11],10–25%
same,reduction of fasting blood glucose level,[11],21–36%
same,reduction of triglyceride level,[11],20–35%
O=C1O[C@H]([C@@H](O)CO)C(O)=C1O [vitamin C],effect on dhBBR-to-BBR reversion,[12],almost completely terminated
